Measured values published in US7196110B2, “N-substituted tricyclic 3-aminopyrazoles as inhibitors for the treatment of cell proliferative disorders” (Janssen Phamaceutica N.V., priority 2002, dated 2007).

Biological target: T1, PDGF-receptor beta enzyme comprising the tyrosine kinase domain (Homo sapiens, UniProt P09619)
T1 construct: from amino acid 545 to 1106 of GenBank Access NO: AAA36427
Experiment: Inhibition of PDGF-receptor kinase activity (cell-free, PLC1 peptide, 33P Flashplate)
Assay type: biochemical
Conditions: PDGF-R kinase activity; for inhibition at 10 µM: compound at 10 uM, read-out: Percent Inhibition @ 10 uM; for IC50: read-out: IC50
Procedure: PDGF-R kinase activity was assayed by its ability to phosphorylate one of its target proteins, PLCγ, in a cell-free system, in particular, a PLC1 peptide comprising the tyrosine residue where the phosphorylation occurs was used for the assay.
10× Kinase Buffer (500 mM Tris-HCl pH=8, 100 mM MgCl2, 1 mM Na3VO4); 10 mM DTT (final concentration at 1 mM in assay); 10 mM ATP (final concentration at 5 μM in assay); ^33P-γ-ATP (Cat. No.: NEG/602H. 2000-3000 Ci/mmol) purchased from NEN; Purified, soluble, recombinant PDGF-receptor beta enzyme comprising the tyrosine kinase domain (from amino acid 545 to 1106 of GenBank Access NO: AAA36427 ) at 0.4 mg/mL; Enzyme Dilution Buffer (50 mM Tris-HCl pH=8.0, 0.1% BSA); Wash/Stop Buffer (PBS +100 mM EDTA); NEN Streptavidin Flashplates (Cat. No.: SMP-103) which binds to the biotinylated PLC1 peptide but not the PDGF-R enzyme; PLC1 peptide (Biotin-[…]-Amide) at 1 mM in 50 mM Tris-HCL with pH of 8.0.
Reagents were first mixed according the following regimen:
The above reaction mixture was dispensed into each well of a Flashplate at 70 μl/well. To test the effect of a compound on PDGF-R kinase activity, the test compound either in a fixed concentration or in serially diluted concentrations in 100% DMSO was added to appropriate wells at 1 μl/well.
Enzyme PDGF-R was diluted in Enzyme dilution buffer as following:
The kinase reaction was initiated by adding 30 μl of diluted PDGF-R enzyme solution to each well on the Flashplate containing hot ATP and PLC1, except wells of column 12 rows E through H, which were used to calculate the plate background. The Flashplate was swirled to mix and was incubated at 30° C. for 60 minutes. Then, the reaction mixture was discarded and the Flashplate was washed 3 times each with 200 μl Wash/Stop Buffer. Subsequently, each well on the Flashplate was filled with 200 μl of Wash/Stop buffer. The amount of ^33P retained in each well was measured using a Packard TopCount after the plate was sealed with a transparent plate sealer.
The percentage of inhibition of the test compound on PDGF-R kinase activity is defined as […].
In order to test the potency of inhibition of present compounds, an IC50 for an individual compound was measured using the above procedure. As used herein, the IC50 for PDGF-R kinase activity refers to the concentration of an inhibitor at which the activity of the PDGF-R kinase is reduced by one-half as compared with reactions containing no inhibitor.

T1 sequence (P09619 545-1106): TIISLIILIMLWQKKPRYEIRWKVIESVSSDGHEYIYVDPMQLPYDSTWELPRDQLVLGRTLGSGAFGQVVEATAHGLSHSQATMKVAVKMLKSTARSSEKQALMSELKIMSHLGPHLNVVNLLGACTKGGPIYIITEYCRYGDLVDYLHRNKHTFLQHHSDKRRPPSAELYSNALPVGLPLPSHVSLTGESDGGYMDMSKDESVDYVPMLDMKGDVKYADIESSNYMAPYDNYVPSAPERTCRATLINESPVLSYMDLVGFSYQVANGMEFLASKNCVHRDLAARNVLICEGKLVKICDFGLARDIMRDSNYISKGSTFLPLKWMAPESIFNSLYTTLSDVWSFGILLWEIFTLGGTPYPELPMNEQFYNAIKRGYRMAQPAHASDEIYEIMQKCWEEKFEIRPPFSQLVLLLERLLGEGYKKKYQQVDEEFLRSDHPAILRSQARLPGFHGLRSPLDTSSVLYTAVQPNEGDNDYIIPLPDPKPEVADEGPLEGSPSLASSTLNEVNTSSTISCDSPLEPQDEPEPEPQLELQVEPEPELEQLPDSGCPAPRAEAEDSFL

Row | inhibition at 10 µM [%] | IC50 [nM] | SMILES
1 | 102 | 39.6 | COc1cccc(Nc2n[nH]c3c2Cc2sccc2-3)c1 [Compound 232, (5,7-Dihydro-1-thia-4,5-diaza-cyclopenta[a]pentalen-6-yl)-(3-methoxy-phenyl)-amine]
2 | 52 | 10600 | COc1cc2c(cc1OC)-c1n[nH]c(NCc3cccc(F)c3)c1C2 [Compound 327, (6,7-Dimethoxy-2,4-dihydro-indeno[1,2-c]pyrazol-3-yl)-(3-fluoro-benzyl)-amine]
3 | 72 | 671 | CCOC(=O)CCC(=O)n1nc(Nc2cccc(F)c2)c2c1-c1cc(OC)c(OC)cc1C2 [Compound 429, 4-[3-(3-Fluoro-phenylamino)-6,7-dimethoxy-4H-indeno[1,2-c]pyrazol-1-yl]-4-oxo-butyric acid ethyl ester]
4 | 92 | 183 | CCC1c2cc(OC)c(OC)cc2-c2n[nH]c(Nc3cccc(OC)c3)c21 (stereo not shown) [Compound 512, (4-Ethyl-6,7-dimethoxy-2,4-dihydro-indeno[1,2-c]pyrazol-3-yl)-(3-methoxy-phenyl)-amine]
5 | 71 | 3930 | COc1ccc(Nc2[nH]nc3c2Cc2ccc(OC)cc2-3)c(OC)c1 [Compound 175, (2,4-Dimethoxy-phenyl)-(7-methoxy-2,4-dihydro-indeno[1,2-c]pyrazol-3-yl)-amine]
6 | 84 | 322 | COc1cc2c(cc1OC)C(C)c1c-2n[nH]c1Nc1cc(F)cc(F)c1 (stereo not shown) [Compound 251, (3,5-Difluoro-phenyl)-(6,7-dimethoxy-4-methyl-2,4-dihydro-indeno[1,2-c]pyrazol-3-yl)-amine]
7 | 32 | 59000 | COc1cc2c(cc1OC)C(C)(C)c1c-2n[nH]c1Nc1cccc(Br)c1 [Compound 485, (3-Bromo-phenyl)-(6,7-dimethoxy-4,4-dimethyl-2,4-dihydro-indeno[1,2-c]pyrazol-3-yl)-amine]
8 | 87 | 218 | COc1cc2c(cc1OC)-c1c(c(Nc3cccc(F)c3)nn1CC(C)=O)C2 [Compound 484, 1-[3-(3-Fluoro-phenylamino)-6,7-dimethoxy-4H-indeno[1,2-c]pyrazol-1-yl]-propan-2-one]
9 | 76 | 1540 | c1ccc(Nc2[nH]nc3c2Cc2cc(N4CCCCC4)ccc2-3)cc1 [Compound 65, Phenyl-(6-piperidin-1-yl-2,4-dihydro-indeno[1,2-c]pyrazol-3-yl)-amine]
10 | 82 | 2.7 | COc1cc2c(cc1OCCCN1CCN(C)CC1)Cc1c-2n[nH]c1Nc1cccc(Cl)c1 [Compound 213, (3-Chloro-phenyl)-{7-methoxy-6-[3-(4-methyl-piperazin-1-yl)-propoxy]-2,4-dihydro-indeno[1,2-c]pyrazol-3-yl}-amine]
11 | 70.5 | 1960 | COc1cc2c(cc1OC)-c1n[nH]c(NCc3ccc(C)c(C)c3)c1C2 [Compound 320, (6,7-Dimethoxy-2,4-dihydro-indeno[1,2-c]pyrazol-3-yl)-(3,4-dimethyl-benzyl)-amine]
12 | 85 | 823 | COc1cccc2c1Cc1c-2n[nH]c1Nc1cccc(C(F)(F)F)c1 [Compound 150, (5-Methoxy-2,4-dihydro-indeno[1,2-c]pyrazol-3-yl)-(3-trifluoromethyl-phenyl)-amine]
13 | 92 | 245 | COC(=O)CCCC(=O)n1nc(Nc2cccc(F)c2)c2c1-c1cc(OC)c(OC)cc1C2 [Compound 464, 5-[3-(3-Fluoro-phenylamino)-6,7-dimethoxy-4H-indeno[1,2-c]pyrazol-1-yl]-5-oxo-pentanoic acid methyl ester]
14 | 95 | 25.3 | Cc1ccccc1CNc1[nH]nc2c1Cc1c(OCCCO)cccc1-2 [Compound 445, 3-[3-(2-Methyl-benzylamino)-2,4-dihydro-indeno[1,2-c]pyrazol-5-yloxy]-propan-1-ol]
15 | 86.5 | 755 | CC(C)Oc1cc2c(cc1OC(C)C)C(C)c1c-2n[nH]c1Nc1cccnc1 (stereo not shown) [Compound 352, (6,7-Diisopropoxy-4-methyl-2,4-dihydro-indeno[1,2-c]pyrazol-3-yl)-pyridin-3-yl-amine]
16 | 77 | 1580 | COc1cc2c(cc1OC)-c1n[nH]c(NCc3ccc(C)c(Cl)c3)c1C2 [Compound 273, (3-Chloro-4-methyl-benzyl)-(6,7-dimethoxy-2,4-dihydro-indeno[1,2-c]pyrazol-3-yl)-amine]
17 | 77 | 7.45 | COc1cc2c(cc1OC)-c1n[nH]c(NCc3c(F)cccc3F)c1C2 [Compound 321, (2,6-Difluoro-benzyl)-(6,7-dimethoxy-2,4-dihydro-indeno[1,2-c]pyrazol-3-yl)-amine]
18 | 81 | 264 | CCOc1cc2c(cc1OCC)-c1n[nH]c(NCc3cccc(F)c3)c1C2 [Compound 294, (6,7-Diethoxy-2,4-dihydro-indeno[1,2-c]pyrazol-3-yl)-(3-fluoro-benzyl)-amine]
19 | 97 | 55.9 | COc1cc2c(cc1OC)-c1c(c(Nc3cccc(F)c3)nn1C(=O)NCCN1CCOCC1)C2 [Compound 521, 3-(3-Fluoro-phenylamino)-6,7-dimethoxy-4H-indeno[1,2-c]pyrazole-1-carboxylic acid (2-morpholin-4-yl-ethyl)-amide]
20 | 86 | 85.2 | CCOc1cc2c(cc1OCC)-c1n[nH]c(NCc3ccccc3)c1C2 [Compound 264, Benzyl-(6,7-diethoxy-2,4-dihydro-indeno[1,2-c]pyrazol-3-yl)-amine]
21 | 57 | 26600 | CCOC(=O)Cn1nc2c(c1Nc1cccc(F)c1)Cc1cc(OC)c(OC)cc1-2 [Compound 510, [3-(3-Fluoro-phenylamino)-6,7-dimethoxy-4H-indeno[1,2-c]pyrazol-2-yl]-acetic acid ethyl ester]
22 | 43 | 37500 | COc1cc2c(cc1OC)C(C)(C)c1c-2n[nH]c1Nc1cccc(F)c1 [Compound 487, (6,7-Dimethoxy-4,4-dimethyl-2,4-dihydro-indeno[1,2-c]pyrazol-3-yl)-(3-fluoro-phenyl)-amine]
23 | 65 | 176 | c1cncc(Nc2[nH]nc3c2Cc2cc4c(cc2-3)OCO4)c1 [Compound 126, (2,9-Dihydro-5,7-dioxa-2,3-diaza-cyclopenta[a]-s-indacen-1-yl)-pyridin-3-yl-amine]
24 | 35 |  | COCn1nc(Nc2cccc(F)c2)c2c1-c1cc(OC)c(OC)cc1C2 [Compound 472, (6,7-Dimethoxy-1-methoxymethyl-1,4-dihydro-indeno[1,2-c]pyrazol-3-yl)-(3-fluoro-phenyl)-amine]
25 | 11 | 287 | COc1cc2c(cc1OC)-c1n[nH]c(Nc3ccc(F)c([N+](=O)[O-])c3)c1C2 [Compound 276, (6,7-Dimethoxy-2,4-dihydro-indeno[1,2-c]pyrazol-3-yl)-(4-fluoro-3-nitro-phenyl)-amine]
26 | 25.5 |  | CCOc1cccc(Nc2[nH]nc3c2C(C)(C)c2cc(OC)c(OC)cc2-3)c1 [Compound 489, (6,7-Dimethoxy-4,4-dimethyl-2,4-dihydro-indeno[1,2-c]pyrazol-3-yl)-(3-ethoxy-phenyl)-amine]
27 | 57.5 | 2610 | COc1ccc(OC)c(CNc2[nH]nc3c2Cc2cc(OC)c(OC)cc2-3)c1 [Compound 274, (2,5-Dimethoxy-benzyl)-(6,7-dimethoxy-2,4-dihydro-indeno[1,2-c]pyrazol-3-yl)-amine]
28 | 91 | 63 | Brc1cccc(Nc2[nH]nc3c2Cc2cc4c(cc2-3)OCO4)c1 [Compound 95, (3-Bromo-phenyl)-(2,9-dihydro-5,7-dioxa-2,3-diaza-cyclopenta[a]-s-indacen-1-yl)-amine]
29 | 72 | 3070 | COc1ccc(Nc2[nH]nc3c2Cc2cc(OC)c(OC)cc2-3)cc1OC [Compound 49, (6,7-Dimethoxy-2,4-dihydro-indeno[1,2-c]pyrazol-3-yl)-(3,4-dimethoxy-phenyl)-amine]
30 | 88 | 1030 | c1ccc(Nc2[nH]nc3c2CCc2ccccc2-3)cc1 [Compound 93, (4,5-Dihydro-2H-benzo[g]indazol-3-yl)-phenyl-amine]
